According to patent US10231453B2, “5-substituted imidazole derivatives” (BAYER CROPSCIENCE AKTIENGESELLSCHAFT, priority 2015, dated 2019):

What was measured:
[1] = Measurement of LogP values by HPLC on reversed phase columns (EEC directive 79/831 Annex V.A8); type: physicochemical; conditions: method [a]: LC-UV, acidic range, 0.1% formic acid in water and acetonitrile as eluent; Table 1
Procedure: Measurement of Log P values was performed as outlined above.

Botrytis cinerea = assay: In vivo preventive test on Botrytis cinerea (grey mould) on gherkin, Examples B, Q1 and R2; conditions: Botrytis cinerea, 500 ppm of active ingredient, preventive spray, evaluated 4 to 5 days after inoculation, read-out: efficacy
Puccinia recondita = assay: In vivo preventive test on Puccinia recondita (brown rust on wheat), Examples C and R3; conditions: Puccinia recondita, 264 h; 500 ppm of active ingredient; wheat, preventive spray, evaluated 11 days after inoculation; read-out: efficacy
Septoria tritici = assay: In vivo preventive test on Septoria tritici (leaf spot on wheat), Examples E, Q3 and R5; conditions: Zymoseptoria tritici, 576 h, 500 ppm of active ingredient; wheat, preventive spray, evaluated 24 days after inoculation; read-out: efficacy
Sphaerotheca fuliginea = assay: In vivo preventive test on Sphaerotheca fuliginea (powdery mildew on cucurbits), Examples F and R6; conditions: Podosphaera fuliginea, 360 h; 500 ppm of active ingredient; gherkin, preventive spray, evaluated 15 days after inoculation; read-out: efficacy
Uromyces appendiculatus = assay: In vivo preventive test on Uromyces appendiculatus (bean rust), Examples G and R7; conditions: 264 h, 500 ppm of active ingredient, bean, preventive spray, evaluated 11 days after inoculation, read-out: efficacy
Alternaria solani = assay: In vivo preventive Alternaria test (tomatoes), Example H; conditions: 72 h, 100 ppm of active ingredient, preventive spray, evaluated 3 days after inoculation, read-out: efficacy
Phakopsora pachyrhizi = assay: In vivo preventive Phakopsora test (soybeans), Example I; conditions: 168 h, 100 ppm of active ingredient, preventive spray, evaluated 7 days after inoculation, read-out: efficacy
Alternaria brassicae = assay: In vivo preventive test on Alternaria brassicae (leaf spot on radish), Examples A and R1; conditions: Alternaria brassicae, 144 h, 500 ppm of active ingredient, preventive spray, evaluated 6 days after inoculation, read-out: efficacy
Pyrenophora teres = assay: In vivo preventive test on Pyrenophora teres (net blotch on barley), Examples D, Q2 and R4; conditions: Pyrenophora teres, 336 h, 500 ppm of active ingredient, preventive spray, evaluated 14 days after inoculation, read-out: efficacy
[2] = tested on: Blumeria graminis fsp. hordei; assay: In vivo preventive Blumeria test (barley), Example K; conditions: 168 h, 500 ppm of active ingredient, preventive spray, evaluated 7 days after inoculation, read-out: efficacy
Excerpt: After the spray coating has been dried, the plants are dusted with spores of Blumeria graminis fsp. hordei.

Pyricularia oryzae = assay: whole plant or invertebrate; type: in vivo; conditions: 192 h, read-out: efficacy
Venturia inaequalis = assay: In vivo preventive Venturia test (apples), Example J; conditions: 240 h, read-out: efficacy
Procedure: After the spray coating has dried on, the plants are inoculated with an aqueous conidia suspension of the causal agent of apple scab (Venturia inaequalis) and then remain for 1 day in an incubation cabinet at approximately 20° C. and a relative atmospheric humidity of 100%.
The plants are then placed in a greenhouse at approximately 21° C. and a relative atmospheric humidity of approximately 90%.
The test is evaluated 10 days after the inoculation.

Fusarium graminearum = assay: whole plant or invertebrate; type: in vivo; conditions: in Hordeum vulgare, 120 h, read-out: efficacy

**Q.** With `OC(Cn1cncc1Cl)(C(F)c1ccccc1Cl)C1(Cl)CC1` (stereo not drawn) [Example I-05] as the molecule, how does the chromatographic logP [1] read?
**A.** 2.17

**Q.** What about the pest or weed control at 500 ppm (Botrytis cinerea) of the same molecule?
**A.** 90 to 100%

**Q.** And the pest or weed control at 500 ppm (Puccinia recondita)?
**A.** 80 to 89%

**Q.** What about the pest or weed control at 500 ppm (Septoria tritici) of the same molecule?
**A.** 80 to 89%

**Q.** What about the pest or weed control at 500 ppm (Sphaerotheca fuliginea) of the same molecule?
**A.** 90 to 100%

**Q.** What about the pest or weed control at 500 ppm (Uromyces appendiculatus) of the same molecule?
**A.** 90 to 100%

**Q.** And the pest or weed control at 100 ppm (Alternaria solani)?
**A.** 70 to 79%

**Q.** And the pest or weed control at 100 ppm (Phakopsora pachyrhizi)?
**A.** 90 to 100%

**Q.** Which chromatographic logP [1] does the source give for `OC(Cc1cc(Cl)ncc1Cl)(Cn1cncc1Cl)C1(Cl)CC1` (stereo not drawn) [Example I-17] here?
**A.** 2.18

**Q.** And the pest or weed control at 500 ppm (Alternaria brassicae)?
**A.** 90 to 100%

**Q.** And the pest or weed control at 500 ppm (Botrytis cinerea)?
**A.** 80 to 89%

**Q.** And the pest or weed control at 500 ppm (Puccinia recondita)?
**A.** 80 to 89%

**Q.** What about the pest or weed control at 500 ppm (Pyrenophora teres) of the same molecule?
**A.** 90 to 100%

**Q.** What about the pest or weed control at 500 ppm (Septoria tritici) of the same molecule?
**A.** 90 to 100%

**Q.** And the pest or weed control at 500 ppm (Sphaerotheca fuliginea)?
**A.** 90 to 100%

**Q.** And the pest or weed control at 500 ppm (Uromyces appendiculatus)?
**A.** 90 to 100%

**Q.** What about the pest or weed control at 100 ppm (Alternaria solani) of the same molecule?
**A.** 90 to 100%

**Q.** And the pest or weed control at 100 ppm (Phakopsora pachyrhizi)?
**A.** 90 to 100%

**Q.** What about the pest or weed control at 500 ppm [2] of the same molecule?
**A.** 70 to 79%

**Q.** And the pest or weed control at 500 ppm (Pyricularia oryzae)?
**A.** 90 to 100%

**Q.** What about the pest or weed control at 100 ppm (Venturia inaequalis) of the same molecule?
**A.** 90 to 100%

**Q.** Which chromatographic logP [1] does the source give for `CSc1cncn1CC(O)(Cc1ccccc1Cl)C1(Cl)CC1` (stereo not drawn) [Example I-22] here?
**A.** 2.08

**Q.** What about the pest or weed control at 500 ppm (Alternaria brassicae) of the same molecule?
**A.** 80 to 89%

**Q.** What about the pest or weed control at 500 ppm (Puccinia recondita) of the same molecule?
**A.** 90 to 100%

**Q.** And the pest or weed control at 500 ppm (Pyrenophora teres)?
**A.** 80 to 89%

**Q.** What about the pest or weed control at 500 ppm (Septoria tritici) of the same molecule?
**A.** 90 to 100%

**Q.** What about the pest or weed control at 500 ppm (Sphaerotheca fuliginea) of the same molecule?
**A.** 90 to 100%

**Q.** What about the pest or weed control at 500 ppm (Uromyces appendiculatus) of the same molecule?
**A.** 90 to 100%

**Q.** And the pest or weed control at 500 ppm [2]?
**A.** 90 to 100%

**Q.** What about the pest or weed control at 500 ppm (Pyricularia oryzae) of the same molecule?
**A.** 80 to 89%

**Q.** For `OC(Cn1cncc1Br)(C(F)c1ccccc1Cl)C1(Cl)CC1` (stereo not drawn) [Example I-23], which chromatographic logP [1] is on record?
**A.** 2.32

**Q.** What about the pest or weed control at 500 ppm (Alternaria brassicae) of the same molecule?
**A.** 80 to 89%

**Q.** And the pest or weed control at 500 ppm (Puccinia recondita)?
**A.** 90 to 100%

**Q.** What about the pest or weed control at 500 ppm (Pyrenophora teres) of the same molecule?
**A.** 80 to 89%

**Q.** What about the pest or weed control at 500 ppm (Septoria tritici) of the same molecule?
**A.** 90 to 100%

**Q.** And the pest or weed control at 500 ppm (Sphaerotheca fuliginea)?
**A.** 90 to 100%

**Q.** What about the pest or weed control at 500 ppm (Uromyces appendiculatus) of the same molecule?
**A.** 90 to 100%

**Q.** And the pest or weed control at 100 ppm (Phakopsora pachyrhizi)?
**A.** 90 to 100%

**Q.** For `OC(Cc1cccnc1Cl)(Cn1cncc1Br)C1(Cl)CC1` (stereo not drawn) [Example I-25], which chromatographic logP [1] is on record?
**A.** 1.56

**Q.** And the pest or weed control at 500 ppm (Botrytis cinerea)?
**A.** 90 to 100%

**Q.** And the pest or weed control at 500 ppm (Puccinia recondita)?
**A.** 80 to 89%

**Q.** And the pest or weed control at 500 ppm (Pyrenophora teres)?
**A.** 80 to 89%

**Q.** And the pest or weed control at 500 ppm (Septoria tritici)?
**A.** 90 to 100%

**Q.** And the pest or weed control at 500 ppm (Sphaerotheca fuliginea)?
**A.** 90 to 100%

**Q.** What about the pest or weed control at 500 ppm (Uromyces appendiculatus) of the same molecule?
**A.** 90 to 100%

**Q.** What about the pest or weed control at 500 ppm [2] of the same molecule?
**A.** 70 to 79%

**Q.** And the pest or weed control at 500 ppm (Pyricularia oryzae)?
**A.** 70 to 79%

**Q.** What does the source list for `N#Cc1cncn1CC(O)(Cc1ccccc1Br)C1(Cl)CC1` (stereo not drawn) [Example I-40]?
**A.** pest or weed control at 500 ppm (Alternaria brassicae): 80 to 89%; pest or weed control at 500 ppm (Botrytis cinerea): 90 to 100%; pest or weed control at 500 ppm (Puccinia recondita): 80 to 89%; pest or weed control at 500 ppm (Pyrenophora teres): 70 to 79%; pest or weed control at 500 ppm (Septoria tritici): 90 to 100%; pest or weed control at 500 ppm (Sphaerotheca fuliginea): 90 to 100%; pest or weed control at 500 ppm (Uromyces appendiculatus): 90 to 100%; pest or weed control at 100 ppm (Alternaria solani): 90 to 100%; pest or weed control at 100 ppm (Phakopsora pachyrhizi): 90 to 100%; pest or weed control at 500 ppm [2]: 90 to 100%; pest or weed control at 500 ppm (Pyricularia oryzae): 70 to 79%; pest or weed control at 100 ppm (Venturia inaequalis): 80 to 89%

**Q.** Which results are given for `OC(Cc1ccc(Br)cc1Cl)(Cn1cncc1Cl)C1(Cl)CC1` (stereo not drawn) [Example I-43]?
**A.** pest or weed control at 500 ppm (Botrytis cinerea): 90 to 100%; pest or weed control at 500 ppm (Puccinia recondita): 90 to 100%; pest or weed control at 500 ppm (Pyrenophora teres): 90 to 100%; pest or weed control at 500 ppm (Septoria tritici): 90 to 100%; pest or weed control at 500 ppm (Sphaerotheca fuliginea): 90 to 100%; pest or weed control at 500 ppm (Uromyces appendiculatus): 90 to 100%; pest or weed control at 100 ppm (Alternaria solani): 80 to 89%; pest or weed control at 100 ppm (Phakopsora pachyrhizi): 90 to 100%; pest or weed control at 500 ppm [2]: 80 to 89%

**Q.** Which chromatographic logP [1] does the source give for `N#Cc1cncn1CC(O)(Cc1ccc(Cl)cc1)C1(Cl)CC1` (stereo not drawn) [Example I-64] here?
**A.** 3.1

**Q.** What about the pest or weed control at 500 ppm (Puccinia recondita) of the same molecule?
**A.** 90 to 100%

**Q.** And the pest or weed control at 500 ppm (Septoria tritici)?
**A.** 90 to 100%

**Q.** And the pest or weed control at 500 ppm (Sphaerotheca fuliginea)?
**A.** 90 to 100%

**Q.** What about the pest or weed control at 500 ppm (Uromyces appendiculatus) of the same molecule?
**A.** 90 to 100%

**Q.** What about the pest or weed control at 500 ppm [2] of the same molecule?
**A.** 90 to 100%

**Q.** And the pest or weed control at 500 ppm (Fusarium graminearum)?
**A.** 80 to 89%

**Q.** What does the source list for `OC(Cc1ccc(Cl)cc1Cl)(Cn1cncc1Cl)C1(Cl)CC1` (stereo not drawn) [Example I-69]?
**A.** pest or weed control at 500 ppm (Alternaria brassicae): 70 to 79%; pest or weed control at 500 ppm (Botrytis cinerea): 80 to 89%; pest or weed control at 500 ppm (Puccinia recondita): 80 to 89%; pest or weed control at 500 ppm (Pyrenophora teres): 80 to 89%; pest or weed control at 500 ppm (Septoria tritici): 80 to 89%; pest or weed control at 500 ppm (Sphaerotheca fuliginea): 90 to 100%; pest or weed control at 500 ppm (Uromyces appendiculatus): 90 to 100%; pest or weed control at 100 ppm (Alternaria solani): 90 to 100%; pest or weed control at 100 ppm (Phakopsora pachyrhizi): 90 to 100%; pest or weed control at 100 ppm (Venturia inaequalis): 90 to 100%

**Q.** For `N#Cc1cncn1CC(O)(Cc1ccccc1Cl)CC1CC1` (stereo not drawn) [Example I-84], which chromatographic logP [1] is on record?
**A.** 2.84

**Q.** What about the pest or weed control at 500 ppm (Puccinia recondita) of the same molecule?
**A.** 90 to 100%

**Q.** And the pest or weed control at 500 ppm (Pyrenophora teres)?
**A.** 80 to 89%

**Q.** And the pest or weed control at 500 ppm (Septoria tritici)?
**A.** 90 to 100%

**Q.** What about the pest or weed control at 500 ppm (Sphaerotheca fuliginea) of the same molecule?
**A.** 90 to 100%

**Q.** And the pest or weed control at 500 ppm (Uromyces appendiculatus)?
**A.** 90 to 100%

**Q.** And the pest or weed control at 500 ppm [2]?
**A.** 90 to 100%

**Q.** And the pest or weed control at 500 ppm (Pyricularia oryzae)?
**A.** 70 to 79%
